Patent US10434128B2, “Composition comprising Ulmi cortex extracts for inhibiting ovotoxicity” (DONGGUK UNIVERSITY GYEONGJU CAMPUS INDUSTRY-ACADEMY …, priority 2017, dated 2019)

Key:
CHO-K1 cells = assay: Cell morphology observation, VCD-induced cell damage; format: cell-based, Chinese hamster; settings: 1.5 mM VCD, 24 hours
Procedure: Through cell morphological changes, it was confirmed whether the Ulmi cortex extract protected CHO-K1 cells from cell damage induced by VCD.
First, cells were distributed into a 96-well plate at a density of 1×10^4 cells/well, and the cells were cultured until the next day, followed by serum starvation for 4 hours. Subsequently, the cells were pre-treated with 300 μg/ml of the Ulmi cortex extract for 4 hours and treated with 1.5 mM VCD, and then incubated at 37° C. under 5% CO2 for 24 hours, and the cells were observed using an optical microscope (Nikon, Japan).

PARP and caspase-3 = assay: Western blot of apoptosis proteins in CHO-K1 cells with VCD-induced ovotoxicity; format: cell-based, Chinese hamster; settings: 1.5 mM VCD; compared to a control
Procedure: As confirmed in Example 4, when CHO-K1 cells were treated with VCD, apoptosis occurred. To examine an effect of pretreatment with the Ulmi cortex extract (300 μg/ml), proteins associated with apoptosis, i.e., poly(ADP-ribosyl) polymerase (PARP) and caspase-3, were identified through western blot analysis.
As described in Example 5-1, a protein sample was collected from CHO-K1 cells pretreated with 300 μg/ml of the Ulmi cortex extract for […] and treated with 1.5 mM VCD. For this, the cells treated with VCD were washed three times with PBS, RIPA buffer was added thereto, and the resulting cells were allowed to react at 4° C. for 30 minutes and then centrifuged at 12,000 rpm for 30 minutes to collect a supernatant, and proteins were extracted therefrom. Subsequently, the same amount of the proteins were separated on a sodium dodecyl sulfate-polyacrylamide gel electrophoresis (SDS-PAGE), and then transferred to a PVDF membrane. To block non-specific binding, the membrane was treated with a blocking buffer (5% skim milk) for 1 hour, and washed with a PBST solution containing 0.1% Tween 20. Thereafter, the membrane was allowed to react with primary antibodies against PARP and caspase-3 at 4° C. overnight. […]

B6C3F1 female mice = assay: VCD-induced premature ovarian failure animal model; settings: VCD 160 mg/kg/day i.p. five times a week, 2 weeks
Procedure: B6C3F1 female mice at the age of 3 weeks (10 g to 12 g) from the same date of birth (DOB) as an experimental animal were purchased from the Central Lab Animal Inc., were adapted to a laboratory environment while sufficiently fed feed and water, and then used in an experiment. The laboratory environment was maintained at a temperature of 22±2° C. and a 12-hour day/12-hour night cycle was maintained until the experiment was completed. […]
Body weight changes were observed every week, based on the body weight measured on the start day of the experiment (day 1). […] One ovary was removed and the ovarian weight was measured and an ovarian weight index was calculated as a ratio of the measured ovarian weight with respect to the body weight immediately before sacrifice.

C1CC2OC2CC1C1CO1 (centres unmarked) [VCD, 4-vinylcyclohexene diepoxide]
cell morphology, group treated only with VCD (CHO-K1 cells): apoptosis was observed
proform band of PARP, treated only with VCD (PARP and caspase-3): decreased
proform band of caspase-3, treated only with VCD (PARP and caspase-3): became pale
ovarian weight index, negative control (VCD) vs normal group (B6C3F1 female mice): significant decrease compared to the normal group
sizes of the ovary and the uterus, negative control (VCD) (B6C3F1 female mice): significantly decreased
